Assay results reported in patent US20240350430A1, “GROWTH INHIBITOR OF METASTATIC HUMAN PROSTATE CANCER CELLS” (Watanabe Oyster Laboratory Co., Ltd., priority 2021, published 2024).

Experiments:
Assay type in all cases: cell-based, human
[1] = system: PC-3 cells; experiment: Colony formation of PC-3 cells; conditions: DHMBA 1 or 10 μM, nine days
Method: The PC-3 and DU-145 cells (1×10^3/in 2 ml of a culture fluid per hole using a six-hole plate) were cultured in a DMEM culture fluid (containing 10% of FBS, 1% of P/S, and 1% of fungizone) containing the DHMBA (1 and 10 μM) under 5% of CO2, at 37° C., for nine days. After the culture, the culture fluid was removed, the cells were washed twice with PBS, 95% of methanol (0.5 ml) was added, and the cells were fixed for 20 minutes. After the fixation, each well of a culture dish was washed four times with PBS (1 ml), and after that 0.5% of crystal violet (0.5 ml) was added, and the product was left for two hours at room temperature for staining. After the stain solution was washed to be removed, drying was performed, and after that colonies containing 50 or more cells were counted by a microscope (Olympus MTV-3, Olympus Corporation, Tokyo, Japan).
FIG. 1(A) is a drawing in which the PC-3 cells (the cell number of 1×10^3/per well of a six-well plate) were cultured under 5% of CO2, at 37° C., for nine days in a DMEM culture fluid (containing 10% of FBS, 1% of P/S, and 1% of fungizone) containing the DHMBA (1 or 10 μM).
FIG. 1(B) is a diagram of counting the number of colonies.

[2] = system: PC-3 cells; experiment: Intracellular active oxygen (ROS) production, H2DCFDA, PC-3 cells; conditions: DHMBA 1, 10, 100, and 1000 μM, 24 hours
Method: (§1) The intracellular active oxygen (reactive oxygen species: ROS) was measured using an ROS measurement kit (MAK144-1 Kit, Sigma-Aldrich) using pro-fluorescent substrate H2DCFDA. The PC-3 and DU-145 cells (the cell number of 2.5×10^4/per well, in 0.1 ml of a culture fluid per hole using a 96-hole plate) were cultured in a DMEM culture fluid (containing 10% of FBS, 1% of P/S, and 1% of fungizone) containing the DHMBA (0.1, 1, 10, 100, or 1000 μM) under 5% of CO2, at 37° C., for 24 hours. After the culture, the cells were washed with PBS, 0.1 ml and 25 μM of an H2DCFDA solution was added, and incubation was performed for 45 minutes. Afterwards, the cells were washed with PBS, and as the amount of active oxygen produced in the cells, fluorescence intensity was measured using a fluorescence measurement plate reader at a wavelength Ex/Em=485/535 nm.
(§2) The PC-3 and DU-145 cells (2.5×10^4/0.1 ml of a culture fluid per hole using a 96-hole plate) were cultured under 5% of CO2, at 37° C., for 24 hours in a DMEM culture fluid (containing 10% of FBS, 1% of P/S, and 1% of fungizone) containing the DHMBA (0.1, 1, 10, 100, or 1000 μM). […] After the cells were washed with PBS, a fluorescence intensity of the cells was measured using a fluorescence measurement plate reader at a wavelength Ex/Em=485/535 nm. […]

[3] = system: DU-145 cells; experiment: Intracellular active oxygen (ROS) production, H2DCFDA, DU-145 cells; conditions: DHMBA 1, 10, 100, and 1000 μM, 24 hours
Method: as §1, §2

[4] = system: DU-145 cells; experiment: Cell invasion, Transwell chambers with Matrigel, DU-145 cells; conditions: DHMBA 1, 10, or 100 μM, 24 hours
Method: The cell invasion activity of the prostate cancer PC-3 and DU-145 cells was measured using Transwell chambers (the catalogue number CLS3464-48EA of Corning, Life Sciences, USA). A chamber was placed in each well of the 24-hole plate. 50 μl of Matrigel (Corning Life Sciences, Cat. No. 356230, USA) was added to the upper surface of the chambers. After drying the gel, 500 μl of a suspension of the PC-3 or DU-145 cells (the cell number of 2.5×10^4/ml, the DMEM not containing FBS) was added to the upper surface of the gel. This cell suspension contained the DHMBA (0, 1, 10, or 100 μM). After the addition of the cell suspension to the chambers, it was incubated for one hour to cause the cells to adhere. 0.75 ml of the culture fluid not containing the FBS and a culture fluid containing 10% of FBS were added to the lower surface of the chambers. The cells on the plate were cultured under 5% of CO2, 95% of air, at 37° C., for 24 hours. […] After the drying, the number of the stained cells was counted by the microscope (Olympus MTV-3, Olympus Corporation, Tokyo, Japan). […]
The cell invasion activities of the prostate cancer PC-3 and DU-145 cells were measured using the Transwell chambers. […] After the drying, the number of the stained cells was counted by the microscope (Olympus MTV-3, Olympus Corporation, Tokyo, Japan). […]

SMILES: COc1c(O)cc(CO)cc1O [DHMBA, 3,5-dihydroxy-4-methoxybenzyl alcohol]
- colony formation [1]: significantly inhibited
- amount of intracellular active oxygen production [2]: significant inhibition
- amount of intracellular active oxygen production [3]: significant inhibition
- invasion [4]: significantly inhibited
